test system: Plasmodium falciparum; test: GSK_TCMDC: Inhibition of Plasmodium falciparum 3D7 in whole erythrocytes, using parasite LDH activity as an index of growth.; assay type: functional, organism-based; details: Plasmodium falciparum, 3D7

Compound | XC50 [nM]
CC(C)C(=O)NC(c1cccs1)c1cc(Cl)c2cccnc2c1O (stereo unspecified) | 575
NC(=O)c1cccc(C(=O)Nc2cccc(-c3cccc(-c4nc5cc(C(F)(F)F)ccc5[nH]4)c3)c2)c1 | 126
Cc1[nH]c(C)c(-c2ccc(CCc3ccc(N)cc3)cc2)c(=O)c1Cl | 98.5
CCCC/C=C(\Cl)c1ccc(O)c2c1C[C@H]1C[C@H]3[C@H](N(C)C)C(O)=C(C(N)=O)C(=O)[C@@]3(O)C(O)=C1C2=O | 1090
CCCCCCc1cc(OC)c(OC)cc1C(C)Nc1ccnc2cc(Cl)ccc12 (stereo unspecified) | 488
C(=Cc1nc2ccccc2s1)c1ccc2c(c1)OCCO2 | 393
CCN1CCCC(CNC(=O)/C(=C/C=C/c2cc3cc(Cl)c(Cl)cc3[nH]2)OC)C1 (stereo unspecified) | 888
O=C(NCC1CCC(C(=O)NCc2cccc3ccccc23)CC1)c1ccc(O)c(-c2ccc(Cl)c(Cl)c2)c1 (stereo unspecified) | 749
Clc1ccc2nc(-c3cccnc3)[nH]c2c1 | 38.4
COc1ccc(NC(=O)Nc2cccc(-c3ccc(-c4nc5cccc(C)c5[nH]4)s3)c2)cc1 | 671
CC(=O)N/N=C/[C@H](CCc1ccccc1)NC(=O)[C@H](CC(C)C)NC(=O)c1ccc(OCCN2CCOCC2)cc1 | 222
CCCCn1c(=N)c(C(=O)NCc2cccnc2)cc2c(=O)n3cccc(C)c3nc21 | 745
Cc1cccc2nc(-c3cccc(-c4ccc(NC(=O)c5ccoc5)cc4)c3)[nH]c12 | 703
CCCCSc1c(CNCCCCCCNCc2ccc3ccccc3c2SCCCC)ccc2ccccc12 | 999
CCC(C)(CC)C(=O)n1ncc2c3c(N)nc(N)nc3ccc21 | 6
CN(C)c1cccc2c1nc(-c1ccco1)n2CCNCc1ccccc1 | 814
Oc1ccccc1CNCc1ccc(-c2cnc(N3CCCC(c4ccccc4)C3)nc2)cc1 (stereo unspecified) | 689
CCCCc1cc(NC2CCN(C)CC2)nc(Nc2ccccc2)n1 | 658
COc1cc2nc(NCCc3ccccc3)nc(NCCc3ccccc3)c2cc1OC | 282
Cc1ccc(Sc2ccc(NC(=O)CN3CCN(C(=O)c4ccco4)CC3)cc2)cc1C | 911
COc1cc2nc(N(C)Cc3cccc(I)c3)nc(N)c2cc1OC | 863
O=C(NC1CCCCN(Cc2ccccc2O)C1)c1ccc(Cl)c(Cl)c1 (stereo unspecified) | 747
Cc1cccc2nc(-c3ccc(-c4ccc(CN5CCOCC5)cc4)cc3)[nH]c12 | 818
Cc1cccc2nc(-c3ccc(-c4ccc(CN5CCN(c6ccncc6)CC5)cc4)s3)[nH]c12 | 114

Compound | XC50 [nM]
CN1CCC(NCc2ccc(-c3cccc(S(=O)(=O)NCc4ccccc4)c3)cc2)CC1 | 324
COc1ccccc1CCNc1ncc(F)c(N[C@@H](Cc2ccccc2)C(=O)NCCc2ccccc2)n1 | 965
Cc1cc(NCCC(=O)Nc2ccccc2)nc(NCCOc2ccccc2)n1 | 1140
O=S(=O)(Nc1ccc(CCN2CCC(N3CCCCC3)CC2)cc1)c1ccc2ccccc2c1 | 1010
COC(=O)c1ccc(CC(C)NCC(O)c2cccc(C(F)(F)F)c2)c(OC)c1 (stereo unspecified) | 804
Oc1ccc(CCNc2nc(NCCCOc3ccccc3-c3ccc(C(F)(F)F)cc3)nc(N3CCNCC3)n2)cc1 | 891
CC(C)(CNCc1ccc(Cl)c(Cl)c1)c1nc(-c2ccc(Cl)c(O)c2)c(-c2ccncc2)[nH]1 | 757
Cc1[nH]c2ccccc2c1C1=CCN(CCCCC2(C)C(=O)Nc3cccc(F)c32)CC1 (stereo unspecified) | 364
COC(=O)C(=C(C)C)N1C(=O)[C@@H](NC(=O)OCc2ccccc2)[C@H]1SS[C@@H]1[C@H](NC(=O)OCc2ccccc2)C(=O)N1C(C(=O)OC)=C(C)C | 434
CCCCCCn1c2c(c(=N)c3c1CCC3)CCCC2 | 291
COc1ccc2nccc(N3CCC(SCCNS(=O)(=O)c4ccc5c(c4)NC(=O)CS5)C3)c2n1 (stereo unspecified) | 1580
CCCNc1nc(NCc2c(C)cccc2C)nc(NC(C)(C)C)n1 | 862
CCNc1cc(C(=O)N[C@@H](Cc2ccccc2)[C@H](O)CNCc2cc(OC)cc(OC)c2)cc(N2CCCC2=O)c1 | 736
Cc1ccc(CNc2cc(C(F)(F)F)nc(-c3ccc(S(C)(=O)=O)cc3)n2)cc1 | 498
O=c1cc(NCCC(CNCc2ccc(Br)o2)NCc2cc(Br)cc(Br)c2)[nH]c2ccccc12 (stereo unspecified) | 860
Nc1ccc(-c2cc(Cl)cc(Cl)c2)cc1-c1cc2ccccc2[nH]1 | 695
CCCCCCN1CCC(NCc2ccc(C(F)(F)F)cc2)CC1 | 375
CN(C)S(=O)(=O)c1cc(-c2ccc3nccc(-c4cccc(S(N)(=O)=O)c4)c3c2)cnc1N | 251
O=C(/C=C/c1ccc(Cl)c(Cl)c1)NCC1CCCC(CN2CCC(c3c[nH]c4ccccc34)CC2)C1 (stereo unspecified) | 726
O=C(Nc1ccc2c(c1)CCN2C1CCN(Cc2cc(F)cc(F)c2F)C1)c1ccco1 (stereo unspecified) | 590
N#Cc1ccc(OCCN(Cc2ccccc2C(F)(F)F)c2ccc(C#N)c(C(F)(F)F)c2)cc1 | 277
CCN(CCCN1CCCCC1)c1cc(C)nc(Nc2ccc(Cl)c(C(F)(F)F)c2)n1 | 173
O=c1cc(NCCCNCc2ccc(C(F)(F)F)cc2F)[nH]c2ccccc12 | 956
O=C(Nc1ccccc1)N(Cc1ccccc1-c1cccc(CNC2CCCC2)c1)C1CCN(Cc2ccccc2)CC1 | 168

Compound | XC50 [nM]
CCCNC(=O)c1cncc(-c2ccc(CNC(CC)c3ccccc3)cc2)c1 (stereo unspecified) | 876
Fc1ccc2[nH]c(-c3ccc(-c4ccc(CNCCN5CCNCC5)cc4)s3)nc2c1 | 779
CCC[C@@H]([C@@H](CC1CCC(C)CC1)C(=O)N[C@@H](CO)C(=O)Nc1nccs1)N(O)C=O (stereo partly specified) | 325
CCCc1cc(Cc2cnc(N)nc2N)cc2c1OC(C)(C)C2 | 1080
Cc1ccc(-c2cccc3c(NC(=O)Nc4ccc5nccc(N6CCN(C)CC6)c5c4)cccc23)cn1 | 352
CN1CCN(CC(=O)Nc2cccc(-c3cccc(-c4nc5cc(C(F)(F)F)ccc5[nH]4)c3)c2)CC1 | 372
O=C(NCc1ccc(Cl)cc1)c1ccc(CN2CCCN(CC3CCCCC3)CC2)cc1 | 1700
CCOP(=O)(OCC)c1ccc(OC)c(-c2ccc[nH]2)c1 | 1190
O=c1cc(NCCCN(Cc2ccccc2)Cc2ccccc2)[nH]c2ccccc12 | 577
Cc1ccc(NC(=O)Nc2ccc(Cl)c(C(F)(F)F)c2)cc1-c1ccc(C(=O)Nc2ccncc2)cc1 | 264
CCNc1cc(C(=O)N[C@@H](Cc2ccccc2)[C@H](O)CNC23CCC(CC2)CC3)cc(N2CCCCS2(=O)=O)c1 | 63.2
CO/C(=C\C=C\c1cc2cc(Cl)c(Cl)cc2[nH]1)C(=O)NC1CC2CCCC(C1)N2C (stereo unspecified) | 1000
CCN1CC=C(c2c[nH]c3ccccc23)CC1 | 1030
CC(C)n1ncc2c(C(=O)N3CCCC4CCCCC43)cc(C3CC3)nc21 (stereo unspecified) | 676
COc1ccc(-c2cc(-c3nc4cc(CN)ccc4[nH]3)c(=O)n(C)c2)cc1OC | 1400
COc1ccc(CN2CCC(CNCCc3ccccc3Oc3ccccc3)CC2)cc1 | 1100
CC(C)(CNCc1ccc(C(F)(F)F)cc1)c1nc(-c2ccc(Cl)c(O)c2)c(-c2ccncc2)[nH]1 | 734
Cc1cc(C2NC(=O)c3ccccc3N2)c(C)n1-c1ccc2c(c1)OCO2 (stereo unspecified) | 731
Cc1ccc(NC(=O)c2ccc(NCCCN(C)Cc3ccccc3)c([N+](=O)[O-])c2)cc1F | 701
FC(F)(F)c1ccc2c(C=Cc3ccncc3)c[nH]c2c1 | 707
CCCCNC(=O)[C@H](CC1CCCCC1)NC(=O)c1ccc(O)c(-c2cccc(C(F)(F)F)c2)c1 | 773
CC(=O)Nc1ccc(CN2CCC(N(C)c3cc(NC(=O)c4cccc(F)c4)ccn3)CC2)cc1 | 1380
Nc1cccc(C=CC(=O)N=c2cc[nH]c3ccccc23)c1 | 1060
O=C(NCC1CCN(Cc2cccc(C(F)(F)F)c2)C1)c1cc(-c2cccc(F)c2)cs1 (stereo unspecified) | 1180

Compound | XC50 [nM]
O=C(NCCCCN1CCN(c2cccc3c2OCCO3)CC1)c1ccc(NC(=O)c2cc(Cl)cc(Cl)c2)cc1 | 225
N#Cc1ccc(NC(=O)c2ccc(Cc3ccc4c(c3)CCN(C3CCC3)CC4)cn2)cc1 | 1120
COc1ccc2ncc(F)c(CCN3CCC(NCc4cnc5c(c4)NC(=O)CS5)CC3)c2c1 | 575
Cc1cccc2nc(-c3cccc(-c4cccc(CNC(C)C)c4)c3)[nH]c12 | 336
CCN(CC)CCN(Cc1ccc(-c2ccc(C(F)(F)F)cc2)cc1)C(=O)Cn1c(CCc2cc(F)cc(F)c2)nc(=O)c2ccccc21 | 983
O=[N+]([O-])c1ccc(C=NNc2nc(Nc3ccccc3)nc(Nc3ccccc3)n2)o1 | 837
CN1CCC(N2CCC(Oc3cccc(C(=O)NCCCC4CCCC4)c3)CC2)CC1 | 843
CCc1cc2c(cc1OCCN(C)C)N(C(=O)Nc1ccc(-c3ccncc3)c(Cl)c1)CC2 | 840
Cc1cc(N2CCCC2)nc(Nc2ccc(NC(=O)c3ccccc3F)cc2)n1 | 922
COc1ccc(C(=O)NCC(C)(C)c2nc(-c3ccc(Cl)c(O)c3)c(-c3ccncc3)[nH]2)cc1OCCN(C(C)C)C(C)C | 643
N#Cc1ccc(NC(=O)c2ccc(C(=O)NCCCCN3CCC(c4ccc5c(c4OCCOC4CCCCO4)CCCC5)CC3)cc2)cc1 (stereo unspecified) | 580
CCN(CCCN1CCCCC1)c1cc(C)nc(Nc2ccc(OC)cc2)n1 | 621
CN(C)c1ccc(CN2CCC(NC(=O)c3ccc(-c4ccccc4Cl)s3)CC2)cc1 | 899
CC[C@H]1CN2CC[C@H]1C[C@H]2[C@H](O)c1cc(/C=C/c2ccc(F)cc2)nc2ccc(OC)cc12 | 28.1
Cn1c(=N)n(CC(=O)N2CCc3ccc(Cl)cc3C2Cc2ccc(Cl)c(Cl)c2)c2ccccc21 (stereo unspecified) | 869
Oc1ccc2[nH]cc(C3CCN(CCC(c4ccccc4)c4ccccc4)CC3)c2c1 | 994
COC1CCC(C(=O)Nc2ccc(-c3cccc(-c4nc5cccc(C)c5[nH]4)c3)cc2)CC1 (stereo unspecified) | 585
OC(CNCc1ccccc1OCc1ccccc1)c1cc(C(F)(F)F)cc(C(F)(F)F)c1 (stereo unspecified) | 134
O=C(c1cc(C(=O)NCc2ccc(Cl)cc2)c(=O)n(Cc2ccc(Cl)cc2)c1)c1cc(F)ccc1O | 949
Cc1cc(N2CCCC2)nc(Nc2ccc(NC(=O)c3ccc(Br)o3)cc2)n1 | 623
O=S(=O)(NC1CCN(c2ccnc3ccccc23)C1)c1ccc(OC(F)(F)F)cc1 (stereo unspecified) | 1080
COc1cc(CNCCCNc2cc(=O)c3ccccc3[nH]2)c2c(c1)C(C)CN2C(=O)OC(C)(C)C (stereo unspecified) | 734
CCCCc1ccc(NC(=O)Nc2cccc(CCNCc3ccccc3)c2)cc1 | 881
O=C(Nc1ccccc1)N(Cc1cccc(-c2cccc(CNCc3ccc4c(c3)OCO4)c2)c1)C1CCN(Cc2ccccc2)CC1 | 281

Source: ChEMBL document CHEMBL1157539, “Thousands of chemical starting points for antimalarial lead identification” (Nature, 2010)
